Assay [1] concerns the target T1, Glycogen phosphorylase, muscle form (Oryctolagus cuniculus) (UniProt P00489).
T1 sequence (whole entry): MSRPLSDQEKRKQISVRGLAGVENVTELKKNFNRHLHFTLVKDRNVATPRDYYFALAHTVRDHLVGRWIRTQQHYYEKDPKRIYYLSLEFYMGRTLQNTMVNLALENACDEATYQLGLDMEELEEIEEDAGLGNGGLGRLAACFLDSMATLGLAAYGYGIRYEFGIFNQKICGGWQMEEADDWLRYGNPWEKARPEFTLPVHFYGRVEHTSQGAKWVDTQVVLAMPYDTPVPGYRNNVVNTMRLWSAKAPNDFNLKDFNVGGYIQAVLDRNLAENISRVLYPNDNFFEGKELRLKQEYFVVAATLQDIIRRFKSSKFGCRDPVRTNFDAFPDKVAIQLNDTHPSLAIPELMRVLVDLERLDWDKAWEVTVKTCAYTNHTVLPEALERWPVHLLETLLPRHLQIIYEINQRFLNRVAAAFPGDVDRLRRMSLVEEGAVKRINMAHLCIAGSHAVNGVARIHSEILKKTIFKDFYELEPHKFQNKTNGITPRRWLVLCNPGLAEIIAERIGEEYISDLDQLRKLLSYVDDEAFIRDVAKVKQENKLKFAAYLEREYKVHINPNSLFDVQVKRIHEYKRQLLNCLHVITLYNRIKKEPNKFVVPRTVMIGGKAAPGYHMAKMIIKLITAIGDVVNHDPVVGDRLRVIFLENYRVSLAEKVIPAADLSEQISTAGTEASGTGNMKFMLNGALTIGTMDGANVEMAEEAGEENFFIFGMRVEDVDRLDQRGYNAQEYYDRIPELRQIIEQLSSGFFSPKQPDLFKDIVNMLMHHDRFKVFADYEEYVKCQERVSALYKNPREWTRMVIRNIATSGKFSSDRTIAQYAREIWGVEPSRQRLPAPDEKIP
Description: Inhibition of rabbit muscle glycogen phosphorylase […] assessed as release of phosphate from glucose-1- phosphate at 10 uM after 20 mins.

For assay [2], the target named is T2, Glycogen phosphorylase, muscle form (Oryctolagus cuniculus, UniProt P00489).
T2 sequence (P00489 whole entry): T1 sequence (whole entry)
Description: Inhibition of rabbit muscle glycogen phosphorylase […] assessed as release of phosphate from glucose-1- phosphate after 20 mins.

In general, inhibition refers to the percentage by which the read-out fell short of the control. The IC50 is the point on the concentration scale where inhibition reaches its midpoint.

As for `COc1ccc2cc(-c3ccc(OC)c(OC)c3)c(=O)oc2c1`, the inhibition in assay [1] is 24%.
Regarding `COC(=O)c1ccccc1NC(=O)Nc1ccc(SC)cc1`, the inhibition in assay [1] stood at 7%.
In the case of `Cc1ccc(S(=O)(=O)CC2CCc3ccccc3C2=O)cc1` (stereo unspecified), the IC50 in assay [2] is 16.5 µM. Further, in assay [1], the inhibition came to 49%.
Consider `Cc1cc(S(=O)(=O)Nc2nnc3c(C(F)(F)F)cc(Cl)cn23)c(S)cc1Cl`, for which, in assay [2], the IC50 was determined as 5.9 µM. Besides, the inhibition in assay [1] is 53%.
`NC(=O)c1ccccc1NC(=O)COc1ccc(Cl)cc1`: the inhibition in assay [1] worked out at 38%.
In the case of `C/C=C/c1cc(OC)c2c(c1)[C@H](C)[C@@H](c1ccc(O)c(OC)c1)O2`, the inhibition in assay [1] is 8%.
As for `Cc1ccccc1NC(=O)C(=O)Nc1ccccc1C`, in assay [2], the IC50 came out at 5.4 µM. Further, the inhibition in assay [1] was 55%.
As to `CSc1cccc(NC(=O)Nc2ccccc2C(N)=O)c1`, the inhibition in assay [1] is 36%.
On to `O=C(CC(=O)NCc1ccccc1)NCc1ccccc1`, for which, in assay [1], the inhibition turned out to be 1%.
For `CCOc1ccc(NC(=O)c2cc3ccccc3cc2O)cc1`, in assay [1], the inhibition was found to be 22%.
On to `CN(C)c1ccc(/C=C/C(=O)c2cc(Cl)ccc2O)cc1`, for which the inhibition in assay [1] was found to be 25%.
Still for that read-out and setting: under `O=C1Oc2ccccc2N/C1=C/C(=O)c1ccc(Cl)cc1` stands 26%; under `Cc1cccc(NC(=O)CC(=O)Nc2cccc(C)c2)c1`, 4%; under `COc1ccccc1NC(=O)C(=O)Nc1ccccn1`, 5%.
For the compound `Cc1cc(S(=O)(=O)Nc2nnc3c4ccccc4ccn23)c(S)cc1Cl`, the IC50 in assay [2] was determined as 7.5 µM. Further, the inhibition in assay [1] is 42%.
For the compound `CSc1ccc(NC(=O)Nc2ccccc2C(N)=O)cc1`, in assay [1], the inhibition was 17%.
Regarding `Cc1ccccc1NC(=O)CC(=O)Nc1ccccc1C`, the inhibition in assay [1] was determined as 2%.
Same read-out and setting: under `COC(=O)c1ccccc1NC(=O)Nc1cccc(OC)c1` stands 12%; under `CCOC(=O)C(=O)CC(=O)c1ccc(OC)cc1`, 34%.
As to `Cc1cc(S(=O)(=O)Nc2nc3ccccc3[nH]2)c(S)cc1Cl`, the IC50 in assay [2] was 6.9 µM. Besides, in assay [1], the inhibition came out at 45%.
Take `CSc1ccc(NC(=O)C2CCCCC2C(=O)O)cc1` (stereo unspecified): the inhibition in assay [1] came to 17%.

The values above are taken from ChEMBL document CHEMBL1811792, “Ligand-based modelling followed by synthetic exploration unveil novel glycogen phosphorylase inhibitory leads” (Bioorg Med Chem, 2011).
